Where two headings read alike, the source gives them in different places.
Legend:
[1] = system: MCF7 cell line; experiment: In vitro cytotoxic activity, MTT method, MCF7; assay type: cell-based, human; conditions: for IC50: Homo sapiens, MCF7, MCF7 cell line, MTT
Description: (§1) Cell lines: The in vitro human breast cancerous cell line (MCF7), lung cancerous cell lines (A549) and normal cell lines were purchased from Serum and Vaccine formulation in Cairo-Egypt.
(§2) In vitro cytotoxic activity of all synthesized compounds against two human breast cell line (MCF7) and lung cell lines (A549) was evaluated according to the MTT method. Firstly, Growth the cell line medium in 96 well tissue culture plate was injected with 10^5 cells/mL (100 uL/plate well) of the cell line and incubated at 37 °C for 24 h to develop a monolayer sheet then the formed growth medium was poured from 96 well microtiter plates after the confluent sheet of cells. […] Secondly, add 0.1 mL of each concentration tetrahydroisoquinoline sample to each plate. The plates were incubated at 37 °C. Thirdly MTT solution (5 mg/mL in PBS) is prepared. Add 20 µL of MTT solution to each well plates. And shaking in 150 rpm for 5 min, to mix the MTT into the media. Then incubate at (37 °C, 5% CO2) for 1–5 h. Finally read the optical density at 560 nm and subtract background at 620 nm.
(§3) In this work, doxorubicin was used as a positive control drug for comparison with the synthesized compounds under the same experimental conditions.

[2] = system: A549 cell line; experiment: In vitro cytotoxic activity, MTT method, A549
Description: as §1, §2, §3

[3] = Homo sapiens, read-out: IC50 ± SD

With `CCOC(=O)CSc1nc(C)c2c(c1C#N)CC(C)(O)C(C(C)=O)C2c1ccc(N(C)C)cc1` (stereo not drawn) [Compound 4, Ethyl 2-((7-Acetyl-4-cyano-1,6-dimethyl-6-hydroxy-8-(4-N,N-dimethylamino-phenyl)-5,6,7,8-tetrahydroisoquinolin-3-yl)thio)acetate] the IC50 [1] was 3074 ± 8 nM, the Toxicity % ([1]; MCF7, 0.0487 µMol) was 0.03467% and the Viability % ([1]; MCF7, 0.0487 µMol) was 99.94%. It also gave a Toxicity % ([1]; MCF7, 0.0975 µMol) of 0.06434%, a Viability % ([1]; MCF7, 0.0975 µMol) of 99.94% and a Toxicity % ([1]; MCF7, 0.195 µMol) of 0.0817%. The Viability % ([1]; MCF7, 0.195 µMol) was 99.92%, the Viability % ([1]; MCF7, 0.391 µMol) was 100% and the Toxicity % ([1]; MCF7, 0.781 µMol) was 7.925%. For the same molecule, the Viability % ([1]; MCF7, 0.781 µMol) was 92.08%, the Toxicity % ([1]; MCF7, 1.562 µMol) was 23.41% and the Viability % ([1]; MCF7, 1.562 µMol) was 76.59%. The Toxicity % ([1]; MCF7, 3.125 µMol) was 36.89%, the Viability % ([1]; MCF7, 3.125 µMol) was 63.11% and the Toxicity % ([1]; MCF7, 6.25 µMol) was 82.07%. For the same molecule, the Viability % ([1]; MCF7, 6.25 µMol) was 17.93%, the Toxicity % ([1]; MCF7, 12.5 µMol) was 91.75% and the Viability % ([1]; MCF7, 12.5 µMol) was 8.252%. It also gave a Toxicity % ([1]; MCF7, 25 µMol) of 96.81%, a Viability % ([1]; MCF7, 25 µMol) of 3.186% and a Toxicity % ([2]; A549, Conc. 0.0487 µMol) of 1.8%. The Viability % ([2]; A549, Conc. 0.0487 µMol) was 98.2%, the Toxicity % ([2]; A549, Conc. 0.0975 µMol) was 2% and the Viability % ([2]; A549, Conc. 0.0975 µMol) was 98%. The Toxicity % ([2]; A549, Conc. 0.195 µMol) was 3.945%, the Viability % ([2]; A549, Conc. 0.195 µMol) was 96.06% and the Toxicity % ([2]; A549, Conc. 0.391 µMol) was 21.14%. It also gave a Viability % ([2]; A549, Conc. 0.391 µMol) of 78.86%, a Toxicity % ([2]; A549, Conc. 0.781 µMol) of 32.54% and a Viability % ([2]; A549, Conc. 0.781 µMol) of 67.46%. The Toxicity % ([2]; A549, Conc. 1.562 µMol) was 62.13%, the Viability % ([2]; A549, Conc. 1.562 µMol) was 37.87% and the Toxicity % ([2]; A549, Conc. 3.125 µMol) was 70.97%. The Viability % ([2]; A549, Conc. 3.125 µMol) was 29.03%, the Toxicity % ([2]; A549, Conc. 6.25 µMol) was 89.19% and the Viability % ([2]; A549, Conc. 6.25 µMol) was 10.81%. It also gave a Toxicity % ([2]; A549, Conc. 12.5 µMol) of 95.94%, a Viability % ([2]; A549, Conc. 12.5 µMol) of 4.063% and a Toxicity % ([2]; A549, Conc. 25 µMol) of 97.28%. For the same molecule, the Viability % ([2]; A549, Conc. 25 µMol) was 2.722% and the IC50 [2, 3] was 918 ± 2 nM.
With `CC(=O)C1C(c2ccc(N(C)C)cc2)c2c(C)nc(SCC(N)=O)c(C#N)c2CC1(C)O` (stereo not drawn) [Compound 5, 2-[(7-Acetyl-4-cyano-1,6-dimethyl-6-hydroxy-8-(4-N,N-dimethylamino-phenyl)-5,6,7,8-tetrahydroisoquinolin-3-yl)thio]acetamide] the IC50 [1] was 924 ± 7 nM, the Toxicity % ([1]; MCF7, 0.0487 µMol) was -4.567% and the Viability % ([1]; MCF7, 0.0487 µMol) was 104.5%. It also gave a Toxicity % ([1]; MCF7, 0.0975 µMol) of -3.545%, a Viability % ([1]; MCF7, 0.0975 µMol) of 103.6% and a Toxicity % ([1]; MCF7, 0.195 µMol) of -2.859%. The Viability % ([1]; MCF7, 0.195 µMol) was 102.9%, the Toxicity % ([1]; MCF7, 0.391 µMol) was 4.208% and the Viability % ([1]; MCF7, 0.391 µMol) was 95.79%. It also gave a Toxicity % ([1]; MCF7, 0.781 µMol) of 35.46%, a Viability % ([1]; MCF7, 0.781 µMol) of 64.54% and a Toxicity % ([1]; MCF7, 1.562 µMol) of 77.53%. It also gave a Viability % ([1]; MCF7, 1.562 µMol) of 22.47%, a Toxicity % ([1]; MCF7, 3.125 µMol) of 88.89% and a Viability % ([1]; MCF7, 3.125 µMol) of 11.11%. The Toxicity % ([1]; MCF7, 6.25 µMol) was 93.91%, the Viability % ([1]; MCF7, 6.25 µMol) was 6.087% and the Toxicity % ([1]; MCF7, 12.5 µMol) was 96.85%. The Viability % ([1]; MCF7, 12.5 µMol) was 3.145%, the Toxicity % ([1]; MCF7, 25 µMol) was 97.22% and the Viability % ([1]; MCF7, 25 µMol) was 2.778%. The Toxicity % ([2]; A549, Conc. 0.0487 µMol) was 0%, the Viability % ([2]; A549, Conc. 0.0487 µMol) was 100% and the Toxicity % ([2]; A549, Conc. 0.0975 µMol) was 0.13%. For the same molecule, the Viability % ([2]; A549, Conc. 0.0975 µMol) was 99.87%, the Toxicity % ([2]; A549, Conc. 0.195 µMol) was 0.3156% and the Viability % ([2]; A549, Conc. 0.195 µMol) was 99.68%. The Toxicity % ([2]; A549, Conc. 0.391 µMol) was 9.625%, the Viability % ([2]; A549, Conc. 0.391 µMol) was 90.37% and the Toxicity % ([2]; A549, Conc. 0.781 µMol) was 36.96%. The Viability % ([2]; A549, Conc. 0.781 µMol) was 63.04%, the Toxicity % ([2]; A549, Conc. 1.562 µMol) was 54.08% and the Viability % ([2]; A549, Conc. 1.562 µMol) was 45.92%. The Toxicity % ([2]; A549, Conc. 3.125 µMol) was 69.66%, the Viability % ([2]; A549, Conc. 3.125 µMol) was 30.34% and the Toxicity % ([2]; A549, Conc. 6.25 µMol) was 83.27%. For the same molecule, the Viability % ([2]; A549, Conc. 6.25 µMol) was 16.73%, the Toxicity % ([2]; A549, Conc. 12.5 µMol) was 91.6% and the Viability % ([2]; A549, Conc. 12.5 µMol) was 8.402%. For the same molecule, the Toxicity % ([2]; A549, Conc. 25 µMol) was 96.37%, the Viability % ([2]; A549, Conc. 25 µMol) was 3.629% and the IC50 [2, 3] was 1247 ± 2 nM.
`COc1cccc2c1C(=O)c1c(O)c3c(c(O)c1C2=O)C[C@@](O)(C(=O)CO)C[C@@H]3O[C@H]1C[C@H](N)[C@H](O)[C@H](C)O1` [Douxrbicin] gave an IC50 ([2]; A549) of 218 nM, a Toxicity % ([2]; A549, Conc. 0.0487 µMol) of 20% and a Viability % ([2]; A549, Conc. 0.0487 µMol) of 80%. It also gave a Viability % ([2]; A549, Conc. 0.0975 µMol) of 73.2%, a Toxicity % ([2]; A549, Conc. 0.195 µMol) of 36.33% and a Viability % ([2]; A549, Conc. 0.195 µMol) of 63.67%. It also gave a Toxicity % ([2]; A549, Conc. 0.391 µMol) of 62.45%, a Viability % ([2]; A549, Conc. 0.391 µMol) of 37.55% and a Viability % ([2]; A549, Conc. 0.781 µMol) of 20.26%. It also gave a Toxicity % ([2]; A549, Conc. 1.562 µMol) of 89.84%, a Viability % ([2]; A549, Conc. 1.562 µMol) of 10.16% and a Toxicity % ([2]; A549, Conc. 3.125 µMol) of 93.56%. For the same molecule, the Viability % ([2]; A549, Conc. 3.125 µMol) was 6.44%, the Toxicity % ([2]; A549, Conc. 6.25 µMol) was 95.35% and the Viability % ([2]; A549, Conc. 6.25 µMol) was 4.651%. It also gave a Toxicity % ([2]; A549, Conc. 12.5 µMol) of 97.9%, a Viability % ([2]; A549, Conc. 12.5 µMol) of 2.1% and a Toxicity % ([2]; A549, Conc. 25 µMol) of 98.9%. For the same molecule, the Viability % ([2]; A549, Conc. 25 µMol) was 1.1%.

Reference: paper PMC10873978, “Novel tetrahydroisoquinolines as DHFR and CDK2 inhibitors: synthesis, characterization, anticancer activity and antioxidant properties” (BMC Chemistry, 2024)
